According to patent US20240140970A1, “A […], AND PREPARATION METHOD AND USE THEREOF” (ASCENTAWITS PHARMACEUTICALS, LTD., priority 2021, published 2024):
Where “and” joins values, the source holds several entries; their conditions need not be identical. Equal values may be shown once.

How the values were obtained:
[1] = Stability of AST-2660 in human plasma at −20° C. and −70° C. for one month (LC-MS/MS); format: in vitro ADME
Experimental: The detection method established in example 4 was used to detect the content of AST-2660 in the human plasma to be tested.
Matrix: the mixed normal human plasma containing anticoagulant (K2 EDTA) • a: the internal standard working solution: AST-2660-D8 was taken, added with methanol, and diluted to prepare a solution containing about 100 ng per 1 ml. • b: the solution to be tested (no internal standard compound was added to the solution to be tested at this time): it was obtained by taking a blood sample to be tested. • c: the standard working solution (no internal standard compound was added to the standard working solution at this time): an appropriate amount of AST-2660 was taken and accurately weighed, dissolved with methanol, and diluted to prepare a solution containing about 1.0 mg per 1 ml, which was used as the standard working stock solution. An appropriate amount of the standard working stock solution was taken, added with the matrix and diluted to prepare standard working solutions with different concentrations containing about 200 ng, 160 ng, 100 ng, 50 ng, 10 ng, 2.0 ng, 1.0 ng and 0.5 ng per 1 ml, respectively. (The solution was stored at −70° C.) • d: the quality control sample solution: an appropriate amount of AST-2660 was taken and accurately weighed, dissolved with methanol, and diluted to prepare a solution containing about 10 μg per 1 ml, which was used as the quality control working stock solution. An appropriate amount of the quality control working stock solution was taken, added with matrix to prepare quality control working solutions with different concentrations containing about 150 ng, 60 ng, 15 ng, 1.5 ng and 0.5 ng per 1 ml. (The solution was stored at −70° C.)
The solution to be tested, the standard working solution and the quality control sample solution were thawed at room temperature and mixed uniformly. 100 μl of the above solution was respectively taken, added with 20 μl of the internal standard and 500 μl of methanol, and vortexed for 3 minutes to mix uniformly, and then centrifuged for 10 minutes at 2143 rcf. 450 μl of the supernatant was taken and dried, and 150 μl of methanol was added for redissolution, and sonicated. Then the plates were centrifuged for 3 minutes at 4° C. It was obtained by taking […] of supernatant.
Liquid phase conditions: A SHARC 1, 3 μm, 2.1*50 mm or chromatograph column with equivalent performance was used; the mobile phase was a methanol solution comprising low content of ammonium acetate; the mobile phase B was acetonitrile; the gradient elution was performed according to the following table, column temperature: 20° C.; injection volume: 5 μl.
Mass spectrometric conditions: electrospray ion source with negative ion scanning mode; spray potential: −4500 V; ion source temperature: 500° C.; collision energy (CE): −22 eV; declustering potential (DP): −55V; entrance potential (EP): −10V; collision chamber exit potential (CXP): −16V; dwell time: 100 ms; high purity nitrogen was used for all gases; AST-2660 ions pairs: m/z 147.0→m/z 62.9; the internal standard AST-2660-D8 ion pairs: m/z 155.0→m/z 62.9.
The AST-2660 standard working solution, blank sample, zero concentration sample, sample solution to be tested and quality control sample solution with different concentrations after extraction were respectively taken and injected into LC-MS/MS for detection.
(§1) Calculation results: the relationship function y=f (x) of the ratio of the peak area of the AST-2660 to that of the internal standard was obtained from AST-2660 standard working solutions with different concentrations. The ratio of the peak area of the AST-2660 to that of the internal standard was determined from the solution to be tested after extraction, and substituted into the relationship function y=f (x) to calculate the concentration of the metabolite II in the solution to be tested.

[2] = Stability of treated (extracted) human urine samples of AST-2660 at room temperature (LC-MS/MS); format: physicochemical; conditions: 94 hours at room temperature
Experimental: The detection method established in example 6 was used to detect the content of AST-2660 in the human urine to be tested.
Matrix: the mixed normal human urine containing an additive Na2HPO4·12H2O. • a: the internal standard working solution: AST-2660-D8 was taken, dissolved with methanol, and diluted to prepare a solution containing about 100 ng per 1 ml. • b: the solution to be tested (no internal standard compound was added to the solution to be tested at this time): it was obtained by taking a blood sample to be tested. • c: the standard working solution (no internal standard compound was added to the standard working solution at this time): an appropriate amount of AST-2660 was taken and accurately weighed, dissolved with methanol and diluted to prepare a solution containing about 1.0 mg per 1 ml, which was used as the standard working stock solution. […]
as §1, with “area of AST-2660 to” for “area of the AST-2660 to”

[3] = QC1 nominal 1.50 ng/ml, 28 days at −20° C.
[4] = QC1 nominal 1.50 ng/ml, 28 days at −70° C.
[5] = QC4 nominal 150 ng/ml, 28 days at −20° C.
[6] = QC4 nominal 150 ng/ml, 28 days at −70° C.

Structure (SMILES): O=P([O-])(N1CC1)N1CC1.[Na+] [AST-2660]
- change of AST-2660 content (in words) ([1]; 28 days of storage at −20° C.): reduced significantly
- change of AST-2660 content (in words) ([1]; 28 days of storage at −70° C.): almost no reduction
- RE (%) vs nominal ([1]; DilQC (10-fold dilution) nominal 1500 ng/ml, 28 days at −20° C.): −32.5%
- RE (%) vs nominal ([1]; DilQC (10-fold dilution) nominal 1500 ng/ml, 28 days at −70° C.): −6.2%
- AST-2660 concentration, Mean value [1, 3]: 1.11 ng/mL
- AST-2660 concentration, single replicates [1, 3]: 1.01 ng/mL and 1.03 ng/mL and 1.14 ng/mL and 1.25 ng/mL
- RE (%) vs nominal [1, 3]: −26.2%
- AST-2660 concentration, Mean value [1, 4]: 1.53 ng/mL
- AST-2660 concentration, single replicates [1, 4]: 1.52 ng/mL and 1.53 ng/mL and 1.59 ng/mL and 1.49 ng/mL
- RE (%) vs nominal [1, 4]: 2.2%
- AST-2660 concentration, Mean value [1, 5]: 146 ng/mL
- AST-2660 concentration, single replicates [1, 5]: 147 ng/mL and 141 ng/mL and 149 ng/mL and 145 ng/mL
- RE (%) vs nominal [1, 5]: −3.0%
- AST-2660 concentration, Mean value [1, 6]: 145 ng/mL
- AST-2660 concentration, single replicates [1, 6]: 142 ng/ml (2×) and 150 ng/ml and 145 ng/ml
- RE (%) vs nominal [1, 6]: −3.5%
- stability (in words) [2]: stable
